Results from the NIST ThermoML archive (doi:10.1016/j.jct.2019.02.028).

Experiment: xn = mol fraction of the nth substance listed
Conditions: Gas, Burnett expansion method

C=C(F)C(F)(F)F [2,3,3,3-tetrafluoro-1-propene] + FCF
Conditions	mass density [kg/m3]
353.42 K, 2273.3 kPa, x2 = 0.259	105.33
353.43 K, 588.71 kPa, x2 = 0.874	12.5
353.43 K, 1253 kPa, x2 = 0.874	28.21
353.47 K, 861.21 kPa, x2 = 0.874	18.78
358.31 K, 1928.5 kPa, x2 = 0.698	54.05
358.32 K, 1240.6 kPa, x2 = 0.449	40.46
358.33 K, 586.28 kPa, x2 = 0.449	17.94
358.33 K, 2665 kPa, x2 = 0.698	81.18
358.34 K, 639.13 kPa, x2 = 0.698	15.95
358.34 K, 1357.4 kPa, x2 = 0.698	35.99
358.34 K, 1994 kPa, x2 = 0.119	94.76
358.34 K, 2418.3 kPa, x2 = 0.449	91.37
358.34 K, 3167.9 kPa, x2 = 0.449	137.24
358.34 K, 3474 kPa, x2 = 0.874	95.77
358.35 K, 591.83 kPa, x2 = 0.259	20.68
358.35 K, 858.88 kPa, x2 = 0.449	26.94
358.35 K, 937.43 kPa, x2 = 0.698	23.96
358.35 K, 1463 kPa, x2 = 0.119	63.06
358.35 K, 1759.6 kPa, x2 = 0.449	60.82
358.35 K, 2335.1 kPa, x2 = 0.259	105.31
358.35 K, 2564.1 kPa, x2 = 0.874	63.62
358.35 K, 3529.2 kPa, x2 = 0.698	121.89
358.36 K, 1237.2 kPa, x2 = 0.259	46.66
358.36 K, 1730.8 kPa, x2 = 0.259	70.06
358.36 K, 1828.8 kPa, x2 = 0.874	42.36
358.36 K, 2579.2 kPa, x2 = 0.119	142.43
358.36 K, 2999.2 kPa, x2 = 0.259	158.78
358.36 K, 4405.8 kPa, x2 = 0.698	183.14
358.36 K, 4479.7 kPa, x2 = 0.874	144.13
358.37 K, 719.85 kPa, x2 = 0.119	27.94
358.37 K, 862.94 kPa, x2 = 0.259	31.07
358.37 K, 1037.7 kPa, x2 = 0.119	41.96
358.38 K, 1274.6 kPa, x2 = 0.874	28.2
358.38 K, 3076.3 kPa, x2 = 0.119	213.92
358.39 K, 597.87 kPa, x2 = 0.874	12.5
358.41 K, 875.21 kPa, x2 = 0.874	18.78
363.26 K, 1966.8 kPa, x2 = 0.698	54.03
363.26 K, 2727.3 kPa, x2 = 0.698	81.16
363.27 K, 1262.7 kPa, x2 = 0.449	40.45
363.28 K, 595.28 kPa, x2 = 0.449	17.93
363.28 K, 648.9 kPa, x2 = 0.698	15.95
363.28 K, 2476.7 kPa, x2 = 0.449	91.33
363.28 K, 3265.9 kPa, x2 = 0.449	137.17
363.28 K, 3632.6 kPa, x2 = 0.698	121.86
363.28 K, 4041.7 kPa, x2 = 0.449	205.81
363.29 K, 1381.4 kPa, x2 = 0.698	35.97
363.29 K, 1795.1 kPa, x2 = 0.449	60.79
363.29 K, 1863 kPa, x2 = 0.874	42.34
363.29 K, 2043.8 kPa, x2 = 0.119	94.71
363.29 K, 2396.3 kPa, x2 = 0.259	105.29
363.29 K, 3100.7 kPa, x2 = 0.259	158.62
363.29 K, 3726.8 kPa, x2 = 0.259	238.72
363.29 K, 4575.5 kPa, x2 = 0.698	183.09
363.3 K, 601.42 kPa, x2 = 0.259	20.68
363.3 K, 872.75 kPa, x2 = 0.449	26.93
363.3 K, 1296.1 kPa, x2 = 0.874	28.19
363.3 K, 1768.3 kPa, x2 = 0.259	70.06
363.3 K, 2619.4 kPa, x2 = 0.874	63.6
363.3 K, 2663.3 kPa, x2 = 0.119	142.34
363.3 K, 3565.6 kPa, x2 = 0.874	95.7
363.3 K, 4630.5 kPa, x2 = 0.874	143.96
363.31 K, 731.75 kPa, x2 = 0.119	27.93
363.31 K, 952.86 kPa, x2 = 0.698	23.95
363.31 K, 1056.3 kPa, x2 = 0.119	41.95
363.31 K, 1260.4 kPa, x2 = 0.259	46.66
363.31 K, 3222.3 kPa, x2 = 0.119	213.79
363.32 K, 877.52 kPa, x2 = 0.259	31.06
363.32 K, 1493.6 kPa, x2 = 0.119	63.03
363.33 K, 606.82 kPa, x2 = 0.874	12.5
363.33 K, 888.85 kPa, x2 = 0.874	18.77
368.2 K, 2004.8 kPa, x2 = 0.698	54.02
368.22 K, 604.3 kPa, x2 = 0.449	17.93
368.22 K, 658.7 kPa, x2 = 0.698	15.94
368.22 K, 1285 kPa, x2 = 0.449	40.44
368.22 K, 2534.6 kPa, x2 = 0.449	91.28
368.22 K, 2789.6 kPa, x2 = 0.698	81.13
368.22 K, 3362.6 kPa, x2 = 0.449	137.11
368.22 K, 4205.2 kPa, x2 = 0.449	205.77
368.23 K, 967.59 kPa, x2 = 0.698	23.94
368.23 K, 1830.4 kPa, x2 = 0.449	60.77
368.23 K, 3201.4 kPa, x2 = 0.259	158.47
368.23 K, 3655.1 kPa, x2 = 0.874	95.63
368.23 K, 3734.8 kPa, x2 = 0.698	121.83
368.23 K, 3898.2 kPa, x2 = 0.259	238.37
368.23 K, 4743.3 kPa, x2 = 0.698	183.03
368.24 K, 610.69 kPa, x2 = 0.259	20.68
368.24 K, 1317.5 kPa, x2 = 0.874	28.18
368.24 K, 1405.2 kPa, x2 = 0.698	35.96
368.24 K, 1523.3 kPa, x2 = 0.119	63.01
368.24 K, 1805.3 kPa, x2 = 0.259	70.05
368.24 K, 1897.2 kPa, x2 = 0.874	42.33
368.24 K, 2093.2 kPa, x2 = 0.119	94.66
368.24 K, 2457.3 kPa, x2 = 0.259	105.26
368.24 K, 2674.2 kPa, x2 = 0.874	63.58
368.24 K, 4778.9 kPa, x2 = 0.874	143.8
368.25 K, 743.56 kPa, x2 = 0.119	27.92
368.25 K, 886.98 kPa, x2 = 0.449	26.92
368.25 K, 1075 kPa, x2 = 0.119	41.94
368.25 K, 1283.3 kPa, x2 = 0.259	46.65
368.25 K, 2746.3 kPa, x2 = 0.119	142.24
368.25 K, 4383.2 kPa, x2 = 0.259	361.18
368.26 K, 891.98 kPa, x2 = 0.259	31.06
368.26 K, 3365.6 kPa, x2 = 0.119	213.65
368.27 K, 3774.3 kPa, x2 = 0.119	320.57
368.28 K, 615.74 kPa, x2 = 0.874	12.49
368.29 K, 902.66 kPa, x2 = 0.874	18.76
373.13 K, 2042.5 kPa, x2 = 0.698	54
373.14 K, 613.24 kPa, x2 = 0.449	17.92
373.15 K, 668.24 kPa, x2 = 0.698	15.94
373.15 K, 1428.2 kPa, x2 = 0.698	35.95
373.15 K, 2592.1 kPa, x2 = 0.449	91.24
373.15 K, 4365.9 kPa, x2 = 0.449	205.72
373.15 K, 4909.8 kPa, x2 = 0.698	182.98
373.16 K, 982.7 kPa, x2 = 0.698	23.94
373.16 K, 2850.9 kPa, x2 = 0.698	81.11
373.16 K, 3458.2 kPa, x2 = 0.449	137.04
373.16 K, 3835.9 kPa, x2 = 0.698	121.81
373.17 K, 1307 kPa, x2 = 0.449	40.43
373.17 K, 1552.9 kPa, x2 = 0.119	62.98
373.17 K, 1842 kPa, x2 = 0.259	70.05
373.17 K, 2141.9 kPa, x2 = 0.119	94.62
373.17 K, 3744.3 kPa, x2 = 0.874	95.56
